Assays:
[1] = Single-molecule fluorescence tracking (HILO) of labeled molecules in their droplets; type: physicochemical; conditions: Alexa488-labeled peptide 10–100 pM in 0.9 mM non-labeled peptide droplets; 25 mM HEPES, 0.5 mM EDTA, 45 mM NaCl, 150 mg/mL dextran, pH 7.0; linear fit of MSD (4D slope)
Procedure: We quantitatively characterized the liquid droplet properties of the four designed peptides and compared them with those of p53. We measured the fusion of the designed peptide droplets in the solution used for p53 droplets (Supplementary Fig. S4). In the presence of 45 mM NaCl and 150 mg/mL dextran, the fusion of droplets for the four designed peptides was observed within 0.2 s, which was much faster than that for p53 (3.7 min)[8]. This gap in the fusion period implies different intrinsic dynamic properties. We measured the movement of Alexa488-labeled peptides within non-labeled peptide droplets using single-molecule fluorescence microscopy with a highly inclined and laminated optical sheet (HILO) illumination[37],[41] (Fig. 3A). […]
Single-molecule measurements were performed following the method described in our previous studies[37],[41]. An inverted fluorescence microscope (IX-73; Olympus) with a total internal reflection fluorescence unit (IX3RFAEVAW; Olympus) was used[52],[53]. […] The fluorescence collected via the objective lens was detected using an EM-CCD camera (iXon Ultra 888, Andor). […] Images were recorded at intervals of 15–154 ms after reducing the number of observable molecules in the droplets by photobleaching within one minute. […]

[2] = test system: p53 monomer (L344P) mutant; experiment: Recruitment (enrichment index) of p53 monomer into designed peptide droplets; design: species or system human; conditions: (GGGS)3-linker versus GSGS-linker droplets; no salt, pH 7.0
Excerpt: (§1) We prepared p53 tetramer, dimer, and monomer mutants, as described previously[8],[37],[50]. For the p53 tetramer, a thermostable and cysteine-modified human p53 mutant (C124A, C135V, C141V, W146Y, C182S, V203A, R209P, C229Y, H233Y, Y234F, N235K, Y236F, T253V, N268D, C275A, C277A, and K292C) was used[50]. The dimer and monomer mutants of p53 corresponded to L344A and L344P of the tetramer sequence, respectively[8],[37]. These p53 mutants were expressed with a glutathione S-transferase (GST) tag in E. coli and purified after cleavage of the GST tag, as described previously[50],[51]. The oligomeric state of p53 mutants was confirmed using a gel filtration column (Superdex 200; GE Healthcare). p53 mutants were labeled with Atto488 (ATTO-TEC) or Alexa488 (Thermo Fisher) using maleimide chemistry and then purified using a heparin column (GE Healthcare). We prepared Alexa488-labeled FUS-MBP as described previously[37],[39].
(§2) Recruitment evaluations were performed following the method described in our previous studies[37],[41]. Solutions containing 0.9–1.8 mM designed peptides, 0.1 µM Alexa488-labeled p53 mutants or Alexa488, 25 mM HEPES, 0.5 mM EDTA, and 1 mM DTT at pH 7.0 were used. The solutions were then incubated at 22 °C for five minutes. The aforementioned microscope was used with HILO illumination. To prevent photo-bleaching of the fluorescent samples, we used a laser power of 0.15 mW. The images were acquired at 22 °C. Using the ImageJ software, we calculated the EI values of the individual droplets as follows:2 EI=Idroplet/Isolution, where Idroplet and Isolution represent the average fluorescence intensities of the individual droplets and solutions near the droplets with background substitution, respectively.

p53 dimer (L344A) mutant = experiment: Recruitment (enrichment index) of p53 dimer into designed peptide droplets; design: species or system human; conditions: (GGGS)3-linker versus GSGS-linker droplets; no salt, pH 7.0
Excerpt: as §1
Recruitment evaluations were performed following the method described in our previous studies[37],[41]. […] Using the ImageJ software, we calculated the EI values of the individual droplets as follows:2 EI=Idroplet/Isolution, where Idroplet and Isolution represent the average fluorescence intensities of the individual droplets and solutions near the droplets with background substitution, respectively.

p53 tetramer = experiment: Recruitment (enrichment index) of p53 tetramer into designed peptide droplets; design: species or system human; conditions: (GGGS)3-linker versus GSGS-linker droplets; no salt, pH 7.0
Excerpt: as §1, §2

Average diffusion coefficient (D) in own droplets [1]: 2.03 ± 0.06 μm^2/s
Sequence: RRRVVQRRRRGGGSGGGSGGGSDDDASQEDDD [DPp53N-(GGGS)3-DPp53C1]
Decrease of average EI of p53 monomer mutant compared to the GSGS-linker peptide [2]: 1.2 fold
Increase of average EI of p53 dimer mutant compared to the GSGS-linker peptide (p53 dimer (L344A) mutant): 1.5 fold
Increase of average EI of p53 tetramer compared to the GSGS-linker peptide (p53 tetramer): 1.8 fold

From paper PMC10079954, “Rational design of phase separating peptides based on phase separating protein sequence of p53” (Scientific Reports, 2023)
